# Data as given in patent publication US20220105081A1 (priority 2020, published 2022).
# Entries after “also recorded” stand apart in the source; their conditions may differ.
# What was measured:
# [1] = biological target: OPRM1 (Mu Opiate receptor) (Homo sapiens, UniProt P35372); test: DiscoverX GPCR Max Panel screen; assay type: cell-based; conditions: VDM-001 at 30 μM; Assay Mode Antagonist
# Description: (§1) In Example 2, DiscoverX platform screening (GPCR Max Panel) of VDM-001(composition of formula I)) at a concentration of 30 μM (the IC50 for VDM-001 from the GTPgS studies) was conducted to confirm the data from the GTPgS study and to determine broad selectivity of over 336 protein targets. MOR antagonism was confirmed (87% activity) along with other targets with >50%. Overall 13 proteins were engaged by VDM-001 with greater than 50% activity.
# [2] = biological target: T1, ADRA2C (Adrenergic receptor alpha 2C) (Homo sapiens, UniProt P18825); test: DiscoverX GPCR Max Panel screen; assay type: cell-based; conditions: VDM-001 at 30 μM; Assay Mode Antagonist
# T1 sequence (P18825 1-462): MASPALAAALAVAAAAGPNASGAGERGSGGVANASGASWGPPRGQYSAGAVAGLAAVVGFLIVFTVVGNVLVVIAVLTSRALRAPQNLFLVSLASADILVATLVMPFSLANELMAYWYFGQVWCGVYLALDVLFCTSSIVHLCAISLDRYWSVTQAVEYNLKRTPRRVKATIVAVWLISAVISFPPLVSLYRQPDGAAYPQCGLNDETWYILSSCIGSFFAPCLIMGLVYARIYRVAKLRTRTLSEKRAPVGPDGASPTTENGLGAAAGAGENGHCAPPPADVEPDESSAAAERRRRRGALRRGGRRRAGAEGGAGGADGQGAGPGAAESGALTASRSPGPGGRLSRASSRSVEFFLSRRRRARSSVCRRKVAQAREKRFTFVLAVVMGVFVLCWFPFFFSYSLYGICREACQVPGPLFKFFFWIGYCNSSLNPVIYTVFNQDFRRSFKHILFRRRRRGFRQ
# Description: as §1
# [3] = biological target: T2, HTR1A (Serotonin 1A receptor) (Homo sapiens, UniProt P08908); test: DiscoverX GPCR Max Panel screen; assay type: cell-based; conditions: VDM-001 at 30 μM; Assay Mode Antagonist
# T2 sequence (P08908 1-422): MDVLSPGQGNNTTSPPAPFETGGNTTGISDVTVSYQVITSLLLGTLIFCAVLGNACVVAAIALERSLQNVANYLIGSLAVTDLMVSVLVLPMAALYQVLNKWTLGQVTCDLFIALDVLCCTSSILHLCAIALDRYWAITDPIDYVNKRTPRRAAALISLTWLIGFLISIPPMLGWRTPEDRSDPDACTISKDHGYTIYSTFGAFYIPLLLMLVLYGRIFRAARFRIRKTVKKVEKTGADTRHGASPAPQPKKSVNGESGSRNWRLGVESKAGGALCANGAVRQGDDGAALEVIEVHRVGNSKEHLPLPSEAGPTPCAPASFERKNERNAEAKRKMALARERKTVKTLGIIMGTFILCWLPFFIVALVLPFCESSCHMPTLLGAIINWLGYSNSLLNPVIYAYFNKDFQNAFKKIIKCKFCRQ
# Description: as §1
# [4] = biological target: T3, CHRM5 (Cholinergic Muscarinic Receptor 5) (Homo sapiens, UniProt P08912); test: DiscoverX GPCR Max Panel screen; assay type: cell-based; conditions: VDM-001 at 30 μM; Assay Mode Antagonist
# T3 sequence (P08912 1-532): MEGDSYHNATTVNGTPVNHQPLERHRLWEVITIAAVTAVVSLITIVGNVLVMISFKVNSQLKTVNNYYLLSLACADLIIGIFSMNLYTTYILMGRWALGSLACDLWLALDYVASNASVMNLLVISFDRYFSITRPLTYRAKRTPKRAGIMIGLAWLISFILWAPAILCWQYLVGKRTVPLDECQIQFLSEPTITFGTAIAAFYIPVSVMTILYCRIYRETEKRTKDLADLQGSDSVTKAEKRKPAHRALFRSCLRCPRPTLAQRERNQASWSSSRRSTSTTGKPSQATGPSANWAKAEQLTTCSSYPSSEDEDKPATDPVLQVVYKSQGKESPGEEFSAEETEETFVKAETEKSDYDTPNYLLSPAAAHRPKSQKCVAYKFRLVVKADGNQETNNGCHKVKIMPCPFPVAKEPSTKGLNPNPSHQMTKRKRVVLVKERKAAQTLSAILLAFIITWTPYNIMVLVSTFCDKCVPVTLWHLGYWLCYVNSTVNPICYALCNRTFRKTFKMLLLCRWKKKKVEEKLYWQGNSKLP
# Description: as §1
# [5] = biological target: T4, ADRA2B (Alpha 2B adrenergic receptor) (Homo sapiens, UniProt P18089); test: DiscoverX GPCR Max Panel screen; assay type: cell-based; conditions: VDM-001 at 30 μM; Assay Mode Antagonist
# T4 sequence (P18089 1-450): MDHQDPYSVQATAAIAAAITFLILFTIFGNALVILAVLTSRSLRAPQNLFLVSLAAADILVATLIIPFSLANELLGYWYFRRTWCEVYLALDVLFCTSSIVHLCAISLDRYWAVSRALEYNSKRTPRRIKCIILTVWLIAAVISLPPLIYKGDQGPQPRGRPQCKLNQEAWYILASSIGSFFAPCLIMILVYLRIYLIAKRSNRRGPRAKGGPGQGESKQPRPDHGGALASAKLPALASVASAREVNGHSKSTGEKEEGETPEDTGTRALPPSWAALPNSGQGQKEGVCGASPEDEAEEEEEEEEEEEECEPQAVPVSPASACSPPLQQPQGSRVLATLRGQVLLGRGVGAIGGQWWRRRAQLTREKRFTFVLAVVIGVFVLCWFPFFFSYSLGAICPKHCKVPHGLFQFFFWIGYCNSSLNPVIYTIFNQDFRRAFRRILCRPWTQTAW
# Description: as §1
# [6] = biological target: T5, CHRM1 (Cholinergic Muscarinic Receptor 1) (Homo sapiens, UniProt P11229); test: DiscoverX GPCR Max Panel screen; assay type: cell-based; conditions: VDM-001 at 30 μM; Assay Mode Antagonist
# T5 sequence (P11229 1-460): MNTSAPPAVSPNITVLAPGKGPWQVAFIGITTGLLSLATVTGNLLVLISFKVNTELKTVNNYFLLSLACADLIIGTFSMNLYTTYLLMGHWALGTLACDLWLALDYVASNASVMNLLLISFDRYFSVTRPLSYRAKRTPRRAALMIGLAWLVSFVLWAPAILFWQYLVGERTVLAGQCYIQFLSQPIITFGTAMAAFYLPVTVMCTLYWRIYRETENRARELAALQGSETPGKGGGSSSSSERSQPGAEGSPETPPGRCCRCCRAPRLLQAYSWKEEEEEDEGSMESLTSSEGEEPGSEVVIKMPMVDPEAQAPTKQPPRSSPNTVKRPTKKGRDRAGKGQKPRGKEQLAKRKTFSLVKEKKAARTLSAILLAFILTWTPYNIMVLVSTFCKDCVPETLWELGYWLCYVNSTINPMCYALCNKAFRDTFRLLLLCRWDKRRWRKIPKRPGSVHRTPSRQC
# Description: as §1
# [7] = biological target: T6, CHRM4 (Cholinergic Muscarinic Receptor 4) (Homo sapiens, UniProt P08173); test: DiscoverX GPCR Max Panel screen; assay type: cell-based; conditions: VDM-001 at 30 μM; Assay Mode Antagonist
# T6 sequence (P08173 1-479): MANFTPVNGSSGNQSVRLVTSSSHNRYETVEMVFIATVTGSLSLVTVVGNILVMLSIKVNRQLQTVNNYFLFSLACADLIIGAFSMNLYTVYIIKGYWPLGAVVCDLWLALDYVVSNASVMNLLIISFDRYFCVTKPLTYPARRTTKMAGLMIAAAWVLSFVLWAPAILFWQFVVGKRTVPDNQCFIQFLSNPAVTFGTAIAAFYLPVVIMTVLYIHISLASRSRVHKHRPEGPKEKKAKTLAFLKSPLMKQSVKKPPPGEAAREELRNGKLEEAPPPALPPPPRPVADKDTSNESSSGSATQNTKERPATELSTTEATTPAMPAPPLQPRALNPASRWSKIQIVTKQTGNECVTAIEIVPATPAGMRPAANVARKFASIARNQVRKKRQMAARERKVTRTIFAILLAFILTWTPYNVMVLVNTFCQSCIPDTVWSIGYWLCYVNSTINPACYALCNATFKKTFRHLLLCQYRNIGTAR
# Description: as §1
# [8] = biological target: OPRL1 (Nociceptin 1 receptor) (Homo sapiens, UniProt P41146); test: DiscoverX GPCR Max Panel screen; assay type: cell-based; conditions: VDM-001 at 30 μM; Assay Mode Antagonist
# Chain of OPRL1 (Nociceptin 1 receptor) (P41146 whole entry): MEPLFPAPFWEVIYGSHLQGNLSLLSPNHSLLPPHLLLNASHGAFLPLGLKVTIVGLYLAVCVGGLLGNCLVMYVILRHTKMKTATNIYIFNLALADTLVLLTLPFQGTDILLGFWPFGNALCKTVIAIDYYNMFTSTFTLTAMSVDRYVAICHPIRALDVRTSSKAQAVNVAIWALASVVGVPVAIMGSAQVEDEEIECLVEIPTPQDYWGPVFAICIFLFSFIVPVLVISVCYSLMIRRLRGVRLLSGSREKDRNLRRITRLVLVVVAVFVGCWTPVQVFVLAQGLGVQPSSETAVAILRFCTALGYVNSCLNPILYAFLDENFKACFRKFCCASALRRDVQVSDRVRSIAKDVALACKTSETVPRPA
# Description: as §1
# [9] = biological target: HRH1 (Histamine H1 receptor) (Homo sapiens, UniProt P35367); test: DiscoverX GPCR Max Panel screen; assay type: cell-based; conditions: VDM-001 at 30 μM; Assay Mode Antagonist
# Chain of HRH1 (Histamine H1 receptor) (P35367 whole entry): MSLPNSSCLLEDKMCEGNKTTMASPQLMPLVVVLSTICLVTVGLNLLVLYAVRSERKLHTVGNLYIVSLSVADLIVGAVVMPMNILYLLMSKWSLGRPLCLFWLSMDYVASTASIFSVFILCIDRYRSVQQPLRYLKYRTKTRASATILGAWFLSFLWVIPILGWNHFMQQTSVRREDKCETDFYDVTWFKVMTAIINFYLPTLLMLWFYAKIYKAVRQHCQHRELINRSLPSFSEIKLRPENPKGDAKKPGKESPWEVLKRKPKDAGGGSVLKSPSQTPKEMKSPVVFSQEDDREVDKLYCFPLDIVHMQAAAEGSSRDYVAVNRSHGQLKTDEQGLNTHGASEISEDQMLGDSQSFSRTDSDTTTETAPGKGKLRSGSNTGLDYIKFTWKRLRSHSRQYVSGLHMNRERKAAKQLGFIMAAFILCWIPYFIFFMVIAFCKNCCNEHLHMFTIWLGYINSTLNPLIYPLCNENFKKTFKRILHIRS
# Description: as §1
# [10] = biological target: CHRM3 (Cholinergic Muscarinic Receptor 3) (Homo sapiens, UniProt P20309); test: DiscoverX GPCR Max Panel screen; assay type: cell-based; conditions: VDM-001 at 30 μM; Assay Mode Antagonist
# Chain of CHRM3 (Cholinergic Muscarinic Receptor 3) (P20309 whole entry): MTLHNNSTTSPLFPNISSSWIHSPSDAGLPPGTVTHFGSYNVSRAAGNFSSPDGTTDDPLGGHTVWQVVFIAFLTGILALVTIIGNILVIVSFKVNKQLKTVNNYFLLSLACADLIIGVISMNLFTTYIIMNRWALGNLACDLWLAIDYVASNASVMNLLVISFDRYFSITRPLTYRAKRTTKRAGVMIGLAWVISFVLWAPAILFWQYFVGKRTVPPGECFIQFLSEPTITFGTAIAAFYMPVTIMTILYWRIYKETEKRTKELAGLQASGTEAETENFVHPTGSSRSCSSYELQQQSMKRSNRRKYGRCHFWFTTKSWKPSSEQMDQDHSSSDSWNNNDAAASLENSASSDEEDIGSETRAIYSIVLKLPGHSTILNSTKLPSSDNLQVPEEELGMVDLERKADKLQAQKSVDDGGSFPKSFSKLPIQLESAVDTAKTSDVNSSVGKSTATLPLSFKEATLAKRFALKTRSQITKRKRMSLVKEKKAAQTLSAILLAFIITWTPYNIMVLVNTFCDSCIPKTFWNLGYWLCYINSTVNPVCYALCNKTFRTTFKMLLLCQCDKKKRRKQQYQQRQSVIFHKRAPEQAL
# Description: as §1
# [11] = biological target: HTR1B (Serotonin 1B receptor) (Homo sapiens, UniProt P28222); test: DiscoverX GPCR Max Panel screen; assay type: cell-based; conditions: VDM-001 at 30 μM; Assay Mode Antagonist
# Chain of HTR1B (Serotonin 1B receptor) (P28222 whole entry): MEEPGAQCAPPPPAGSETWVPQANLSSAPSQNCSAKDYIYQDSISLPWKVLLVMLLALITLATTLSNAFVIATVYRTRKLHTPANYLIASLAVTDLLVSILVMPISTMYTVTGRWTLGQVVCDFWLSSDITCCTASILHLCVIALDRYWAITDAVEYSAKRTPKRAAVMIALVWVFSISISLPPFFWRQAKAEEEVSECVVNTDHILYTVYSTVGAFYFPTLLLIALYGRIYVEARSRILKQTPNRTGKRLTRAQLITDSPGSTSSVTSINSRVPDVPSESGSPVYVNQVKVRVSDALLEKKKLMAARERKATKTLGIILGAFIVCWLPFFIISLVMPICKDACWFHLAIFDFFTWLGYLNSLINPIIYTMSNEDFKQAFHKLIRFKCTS
# Description: as §1
# [12] = biological target: T7, DRD4 (Dopamine D4 receptor) (Homo sapiens, UniProt P21917); test: DiscoverX GPCR Max Panel screen; assay type: cell-based; conditions: VDM-001 at 30 μM; Assay Mode Antagonist
# T7 sequence (P21917 1-419): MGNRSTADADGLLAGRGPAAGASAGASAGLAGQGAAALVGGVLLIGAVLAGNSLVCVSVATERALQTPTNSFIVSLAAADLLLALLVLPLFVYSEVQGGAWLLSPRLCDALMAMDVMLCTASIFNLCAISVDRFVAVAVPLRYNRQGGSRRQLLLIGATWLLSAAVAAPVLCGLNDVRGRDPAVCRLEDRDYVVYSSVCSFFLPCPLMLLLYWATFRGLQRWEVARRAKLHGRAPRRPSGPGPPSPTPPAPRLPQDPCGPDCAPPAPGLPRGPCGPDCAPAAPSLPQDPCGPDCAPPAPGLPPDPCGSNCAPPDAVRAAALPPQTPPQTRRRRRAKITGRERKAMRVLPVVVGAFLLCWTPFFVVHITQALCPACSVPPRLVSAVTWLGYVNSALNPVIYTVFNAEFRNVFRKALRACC
# Description: as §1
# [13] = biological target: T8, ADRA1B (Alpha 1B adrenergic receptor) (Homo sapiens, UniProt P35368); test: DiscoverX GPCR Max Panel screen; assay type: cell-based; conditions: VDM-001 at 30 μM; Assay Mode Antagonist
# T8 sequence (P35368 1-520): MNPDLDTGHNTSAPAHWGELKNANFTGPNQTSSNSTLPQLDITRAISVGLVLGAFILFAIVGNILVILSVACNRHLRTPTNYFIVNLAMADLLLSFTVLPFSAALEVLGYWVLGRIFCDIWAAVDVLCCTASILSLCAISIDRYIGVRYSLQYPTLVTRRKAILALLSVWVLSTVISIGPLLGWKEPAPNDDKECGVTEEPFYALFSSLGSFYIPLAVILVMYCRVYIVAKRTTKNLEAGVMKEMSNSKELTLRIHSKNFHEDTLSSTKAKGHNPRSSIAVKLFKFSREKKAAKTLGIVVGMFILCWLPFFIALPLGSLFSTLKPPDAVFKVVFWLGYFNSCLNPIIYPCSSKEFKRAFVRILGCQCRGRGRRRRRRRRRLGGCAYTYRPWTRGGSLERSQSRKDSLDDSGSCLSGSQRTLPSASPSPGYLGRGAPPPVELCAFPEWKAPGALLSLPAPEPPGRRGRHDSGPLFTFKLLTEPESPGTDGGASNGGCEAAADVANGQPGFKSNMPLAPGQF
# Description: as §1
# morphine-dependent rats = test: Opiate withdrawal signs in morphine-dependent rats
# Sigma sites = test: Receptor activity profile (stated)
# kappa receptors = kappa receptors (Homo sapiens, UniProt P41145); test: Receptor activity profile (stated)
# Chain of kappa receptors (P41145 whole entry): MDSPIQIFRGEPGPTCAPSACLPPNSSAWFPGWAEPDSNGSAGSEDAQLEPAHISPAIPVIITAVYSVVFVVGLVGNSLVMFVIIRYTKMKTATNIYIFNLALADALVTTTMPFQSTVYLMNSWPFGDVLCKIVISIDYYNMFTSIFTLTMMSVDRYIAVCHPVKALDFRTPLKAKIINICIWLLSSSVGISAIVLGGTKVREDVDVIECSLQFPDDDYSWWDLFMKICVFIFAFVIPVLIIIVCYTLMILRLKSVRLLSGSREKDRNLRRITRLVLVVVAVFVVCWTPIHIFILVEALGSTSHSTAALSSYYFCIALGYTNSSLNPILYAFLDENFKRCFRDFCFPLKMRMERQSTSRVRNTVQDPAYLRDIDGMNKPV
# mu opioid receptors = mu opioid receptors (Homo sapiens, UniProt P35372); test: Receptor activity profile (stated)
# Chain of mu opioid receptors (P35372 whole entry): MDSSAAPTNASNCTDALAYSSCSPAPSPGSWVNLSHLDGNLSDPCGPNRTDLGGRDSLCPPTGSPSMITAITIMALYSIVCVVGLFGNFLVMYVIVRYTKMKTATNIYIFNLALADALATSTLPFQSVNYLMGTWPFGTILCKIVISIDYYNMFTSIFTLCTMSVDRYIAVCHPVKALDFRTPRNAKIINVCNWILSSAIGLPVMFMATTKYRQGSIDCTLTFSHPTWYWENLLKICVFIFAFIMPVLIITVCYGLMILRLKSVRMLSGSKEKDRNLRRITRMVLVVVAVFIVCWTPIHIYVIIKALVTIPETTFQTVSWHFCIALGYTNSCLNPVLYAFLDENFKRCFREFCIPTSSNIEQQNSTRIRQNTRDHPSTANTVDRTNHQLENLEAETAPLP
# ORL1 receptors = ORL1 receptors (Homo sapiens, UniProt P41146); test: Receptor activity profile (stated)
# Chain of ORL1 receptors (P41146 whole entry): as the sequence (P41146 whole entry) above
# MOR = MOR (Homo sapiens, UniProt P35372); test: GTPgS studies; assay type: biochemical; conditions: read-out: IC50 from the GTPgS studies
# Chain of MOR (P35372 whole entry): as the sequence (P35372 whole entry) above
# Chain of OPRM1 (Mu Opiate receptor) (P35372 whole entry): as above
compound,measurement,setting,value
"CCC(=O)NC1CC(C)N(CCc2ccccc2)CC1C (stereo not drawn) [VDM-001, N-[2,5-dimethyl-1-(2-phenylethyl)piperidin-4-yl]propanamide]",Activity,[1],87%
same,Activity,[2],104%
same,Activity,[3],73%
same,Activity,[4],74%
same,Activity,[5],98%
same,Activity,[6],72%
same,Activity,[7],72%
same,Activity,[8],54%
same,Activity,[9],99%
same,Activity,[10],85%
same,Activity,[11],60%
same,Activity,[12],75%
same,Activity,[13],84%
same,incidence of diarrhea,"morphine-dependent rats; 20 mg/kg, equal to the control",around 1%
same,incidence of diarrhea,morphine-dependent rats; 40 mg/kg,less than 20%
same,opiate withdrawal signs,morphine-dependent rats; 20 or 40 mg/kg,"minimal, if any, opiate withdrawal signs; also recorded: did not precipitate morphine withdrawal symptoms; also recorded: did not show significant withdrawal signs"
same,mode of action at Sigma sites,Sigma sites,either agonist or antagonist activity
same,mode of action at kappa receptors,kappa receptors,antagonist
same,mode of action at mu opioid receptors,mu opioid receptors,partial agonist
same,mode of action at ORL1 receptors,ORL1 receptors,antagonist
same,IC50,MOR,30 µM
"C=CCN1CC[C@]23c4c5ccc(O)c4O[C@H]2C(=O)CC[C@@]3(O)[C@H]1C5 [naloxone, 17-allyl-4,5a-epoxy-3,14-dihydroxymorphinan-6-one, reference compound]",incidence of diarrhea,morphine-dependent rats; 1 mg/kg,over 80%
same,opiate withdrawal signs,morphine-dependent rats; 1 mg/kg,large opiate withdrawal signs
same,opiate withdrawal signs,"morphine-dependent rats; 1 mg/kg, listed as Naloxone",precipitated a large number of withdrawal signs
